Source: patent publication US12077537B2 (Gilead Sciences, Inc., priority 2020, dated 2024)

The compounds below were run on HIV-IIIb (assay: Antiviral assay in MT4 cells). Details: Human immunodeficiency virus 1, MT4, 120 h; MT-4 cells mixed with HIV-IIIb at m.o.i. 0.003; 5 days at 37° C.; CellTiter-Glo luminescence; 50% decrease in signal, a measure of HIV-1 replication.
Assay type: cell-based
Procedure, shortened: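 Compound, tested at ten 3-fold dilutions in quadruplicate in 10% FBS medium, received MT-4 cells pre-mixed 1 hour with HIV-IIIb (m.o.i. 0.003). Protection was read as luminescent cell viability (CellTiter-Glo) after 5 days' culture at 37° C.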

Compound | EC50 [nM]
Cn1nc(NS(C)(=O)=O)c2cccc(-c3cc4[nH]c(-c5ccccc5)nc4nc3[C@H](Cc3cc(F)cc(F)c3)NC(=O)Cn3nc(C(F)(F)F)c4c3C(F)(F)[C@@H]3C[C@H]43)c21 [Example 94, 2-((3bS,4aR)-5,5-difluoro-3-(trifluoromethyl)-3b,4,4a,5-tetrahydro-1H-cyclopropa[3,4]cyclopenta[1,2-c]pyrazol-1-yl)-N—((S)-2-(3,5-difluorophenyl)-1-(6-(1-methyl-3-(methylsulfonamido)-1H-indazol-7-yl)-2-phenyl-1H-imidazo[4,5-b]pyridin-5-yl)ethyl)acetamide] | 81.2
Cn1nc(NS(C)(=O)=O)c2cccc(-c3cc4[nH]c(-c5ccccc5)nc4nc3[C@H](Cc3cc(F)cc(F)c3)NC(=O)Cn3nc(C(F)F)c4c3C(F)(F)[C@@H]3C[C@H]43)c21 [Example 95, 2-((3bS,4aR)-3-(difluoromethyl)-5,5-difluoro-3b,4,4a,5-tetrahydro-1H-cyclopropa[3,4]cyclopenta[1,2-c]pyrazol-1-yl)-N—((S)-2-(3,5-difluorophenyl)-1-(6-(1-methyl-3-(methylsulfonamido)-1H-indazol-7-yl)-2-phenyl-1H-imidazo[4,5-b]pyridin-5-yl)ethyl)acetamide] | 67.5
Cn1nc(NS(C)(=O)=O)c2c(Cl)ccc(-c3cc4[nH]c(C5CC5)nc4nc3[C@H](Cc3cc(F)cc(F)c3)NC(=O)Cn3nc(C(F)(F)F)c4c3C(F)(F)[C@@H]3C[C@H]43)c21 [Example 96, N—((S)-1-(6-(4-chloro-1-methyl-3-(methylsulfonamido)-1H-indazol-7-yl)-2-cyclopropyl-1H-imidazo[4,5-b]pyridin-5-yl)-2-(3,5-difluorophenyl)ethyl)-2-((3bS,4aR)-5,5-difluoro-3-(trifluoromethyl)-3b,4,4a,5-tetrahydro-1H-cyclopropa[3,4]cyclopenta[1,2-c]pyrazol-1-yl)acetamide] | 3.9
Cn1nc(NS(C)(=O)=O)c2c(Cl)ccc(-c3cc4[nH]c(C5CC5)nc4nc3[C@H](Cc3cc(F)cc(F)c3)NC(=O)Cn3nc(C(F)F)c4c3C(F)(F)[C@@H]3C[C@H]43)c21 [Example 97, N—((S)-1-(6-(4-chloro-1-methyl-3-(methylsulfonamido)-1H-indazol-7-yl)-2-cyclopropyl-1H-imidazo[4,5-b]pyridin-5-yl)-2-(3,5-difluorophenyl)ethyl)-2-((3bS,4aR)-3-(difluoromethyl)-5,5-difluoro-3b,4,4a,5-tetrahydro-1H-cyclopropa[3,4]cyclopenta[1,2-c]pyrazol-1-yl)acetamide] | 3.1
Cn1cc(-c2nc3nc([C@H](Cc4cc(F)cc(F)c4)NC(=O)Cn4nc(C(F)F)c5c4C(F)(F)[C@@H]4C[C@H]54)c(-c4ccc(Cl)c5c(NS(C)(=O)=O)nn(C)c45)cc3[nH]2)cn1 [Example 98, N—((S)-1-(6-(4-chloro-1-methyl-3-(methylsulfonamido)-1H-indazol-7-yl)-2-(1-methyl-1H-pyrazol-4-yl)-1H-imidazo[4,5-b]pyridin-5-yl)-2-(3,5-difluorophenyl)ethyl)-2-((3bS,4aR)-3-(difluoromethyl)-5,5-difluoro-3b,4,4a,5-tetrahydro-1H-cyclopropa[3,4]cyclopenta[1,2-c]pyrazol-1-yl)acetamide] | 3
Cc1nc2nc([C@H](Cc3cc(F)cc(F)c3)NC(=O)Cn3nc(C(F)F)c4c3C(F)(F)[C@@H]3C[C@H]43)c(-c3ccc(Cl)c4c(NS(C)(=O)=O)nn(C)c34)cc2[nH]1 [Example 99, N—((S)-1-(6-(4-chloro-1-methyl-3-(methylsulfonamido)-1H-indazol-7-yl)-2-methyl-1H-imidazo[4,5-b]pyridin-5-yl)-2-(3,5-difluorophenyl)ethyl)-2-((3bS,4aR)-3-(difluoromethyl)-5,5-difluoro-3b,4,4a,5-tetrahydro-1H-cyclopropa[3,4]cyclopenta[1,2-c]pyrazol-1-yl)acetamide] | 1.6
Cc1nc2nc([C@H](Cc3cc(F)cc(F)c3)NC(=O)Cn3nc(C(F)(F)F)c4c3C(F)(F)[C@@H]3C[C@H]43)c(-c3ccc(Cl)c4c(NS(C)(=O)=O)nn(C)c34)cc2[nH]1 [Example 100, N—((S)-1-(6-(4-chloro-1-methyl-3-(methylsulfonamido)-1H-indazol-7-yl)-2-methyl-1H-imidazo[4,5-b]pyridin-5-yl)-2-(3,5-difluorophenyl)ethyl)-2-((3bS,4aR)-5,5-difluoro-3-(trifluoromethyl)-3b,4,4a,5-tetrahydro-1H-cyclopropa[3,4]cyclopenta[1,2-c]pyrazol-1-yl)acetamide] | 2.4
COCc1nc2nc([C@H](Cc3cc(F)cc(F)c3)NC(=O)Cn3nc(C(F)(F)F)c4c3C(F)(F)[C@@H]3C[C@H]43)c(-c3ccc(Cl)c4c(NS(C)(=O)=O)nn(C)c34)cc2[nH]1 [Example 101, N—((S)-1-(6-(4-chloro-1-methyl-3-(methylsulfonamido)-1H-indazol-7-yl)-2-(methoxymethyl)-1H-imidazo[4,5-b]pyridin-5-yl)-2-(3,5-difluorophenyl)ethyl)-2-((3bS,4aR)-5,5-difluoro-3-(trifluoromethyl)-3b,4,4a,5-tetrahydro-1H-cyclopropa[3,4]cyclopenta[1,2-c]pyrazol-1-yl)acetamide] | 2.1
COCc1nc2nc([C@H](Cc3cc(F)cc(F)c3)NC(=O)Cn3nc(C(F)F)c4c3C(F)(F)[C@@H]3C[C@H]43)c(-c3ccc(Cl)c4c(NS(C)(=O)=O)nn(C)c34)cc2[nH]1 [Example 102, N—((S)-1-(6-(4-chloro-1-methyl-3-(methylsulfonamido)-1H-indazol-7-yl)-2-(methoxymethyl)-1H-imidazo[4,5-b]pyridin-5-yl)-2-(3,5-difluorophenyl)ethyl)-2-((3bS,4aR)-3-(difluoromethyl)-5,5-difluoro-3b,4,4a,5-tetrahydro-1H-cyclopropa[3,4]cyclopenta[1,2-c]pyrazol-1-yl)acetamide] | 1.5
COCc1nc2nc([C@H](Cc3cc(F)cc(F)c3)NC(=O)Cn3nc(C(F)F)c4c3C(F)(F)[C@@H]3C[C@H]43)c(-c3ccc(Cl)c4c(N)nn(C)c34)cc2[nH]1 [Example 103, N—((S)-1-(6-(3-amino-4-chloro-1-methyl-1H-indazol-7-yl)-2-(methoxymethyl)-1H-imidazo[4,5-b]pyridin-5-yl)-2-(3,5-difluorophenyl)ethyl)-2-((3bS,4aR)-3-(difluoromethyl)-5,5-difluoro-3b,4,4a,5-tetrahydro-1H-cyclopropa[3,4]cyclopenta[1,2-c]pyrazol-1-yl)acetamide] | 5.9
CC(C)c1nc2nc([C@H](Cc3cc(F)cc(F)c3)NC(=O)Cn3nc(C(F)F)c4c3C(F)(F)[C@@H]3C[C@H]43)c(-c3ccc(Cl)c4c(NS(C)(=O)=O)nn(C)c34)cc2[nH]1 [Example 104, N—((S)-1-(6-(4-chloro-1-methyl-3-(methylsulfonamido)-1H-indazol-7-yl)-2-isopropyl-TH-imidazo[4,5-b]pyridin-5-yl)-2-(3,5-difluorophenyl)ethyl)-2-((3bS,4aR)-3-(difluoromethyl)-5,5-difluoro-3b,4,4a,5-tetrahydro-TH-cyclopropa[3,4]cyclopenta[1,2-c]pyrazol-1-yl)acetamide] | 4.4
Cn1nc(NS(C)(=O)=O)c2c(Cl)ccc(-c3cc4[nH]c(C(C)(C)O)nc4nc3[C@H](Cc3cc(F)cc(F)c3)NC(=O)Cn3nc(C(F)F)c4c3C(F)(F)[C@@H]3C[C@H]43)c21 [Example 105, N—((S)-1-(6-(4-chloro-1-methyl-3-(methylsulfonamido)-1H-indazol-7-yl)-2-(2-hydroxypropan-2-yl)-1H-imidazo[4,5-b]pyridin-5-yl)-2-(3,5-difluorophenyl)ethyl)-2-((3bS,4aR)-3-(difluoromethyl)-5,5-difluoro-3b,4,4a,5-tetrahydro-1H-cyclopropa[3,4]cyclopenta[1,2-c]pyrazol-1-yl)acetamide] | 4.9
Cn1nc(NS(C)(=O)=O)c2c(Cl)ccc(-c3cc4[nH]c(C(C)(C)O)nc4nc3[C@H](Cc3cc(F)cc(F)c3)NC(=O)Cn3nc(C(F)(F)F)c4c3C(F)(F)[C@@H]3C[C@H]43)c21 [Example 106, N—((S)-1-(6-(4-chloro-1-methyl-3-(methylsulfonamido)-1H-indazol-7-yl)-2-(2-hydroxypropan-2-yl)-1H-imidazo[4,5-b]pyridin-5-yl)-2-(3,5-difluorophenyl)ethyl)-2-((3bS,4aR)-5,5-difluoro-3-(trifluoromethyl)-3b,4,4a,5-tetrahydro-1H-cyclopropa[3,4]cyclopenta[1,2-c]pyrazol-1-yl)acetamide] | 6.4
Cn1nc(NS(C)(=O)=O)c2c(Cl)ccc(-c3cc4c(nc3[C@H](Cc3cc(F)cc(F)c3)NC(=O)Cn3nc(C(F)(F)F)c5c3C(F)(F)[C@@H]3C[C@H]53)NCC(=O)N4)c21 [Example 107, N—((S)-1-(7-(4-chloro-1-methyl-3-(methylsulfonamido)-1H-indazol-7-yl)-2-oxo-1,2,3,4-tetrahydropyrido[2,3-b]pyrazin-6-yl)-2-(3,5-difluorophenyl)ethyl)-2-((3bS,4aR)-5,5-difluoro-3-(trifluoromethyl)-3b,4,4a,5-tetrahydro-1H-cyclopropa[3,4]cyclopenta[1,2-c]pyrazol-1-yl)acetamide] | 42.2
Cn1nc(NS(C)(=O)=O)c2c(Cl)ccc(-c3cc4c(nc3[C@H](Cc3cc(F)cc(F)c3)NC(=O)Cn3nc(C(F)F)c5c3C(F)(F)[C@@H]3C[C@H]53)NCC(=O)N4)c21 [Example 108, N—((S)-1-(7-(4-chloro-1-methyl-3-(methylsulfonamido)-1H-indazol-7-yl)-2-oxo-1,2,3,4-tetrahydropyrido[2,3-b]pyrazin-6-yl)-2-(3,5-difluorophenyl)ethyl)-2-((3bS,4aR)-3-(difluoromethyl)-5,5-difluoro-3b,4,4a,5-tetrahydro-1H-cyclopropa[3,4]cyclopenta[1,2-c]pyrazol-1-yl)acetamide] | 34.5
